Fold change (FC) and K data for two molecules are collected here from ChEMBL document CHEMBL1140110, “Hydration of drug-DNA complexes: greater water uptake for adriamycin compared to daunomycin” (J Med Chem, 2008).

Experiment [1] has as its system DNA. The experiment in a line: Binding affinity to calf thymus DNA at 1 uM in BPES buffer by fluorescence titration relative to daunomycin. The experiment is classed as nucleic-acid assay. The following applies: Bos taurus.
The test system of experiment [2] is DNA. Kind of experiment: Binding affinity to calf thymus DNA in BPES buffer assessed as binding constant K/10^5 by fluorescence titration. It is filed as nucleic-acid assay. The following applies: Bos taurus.

In the experiment with DNA [1], `COc1cccc2c1C(=O)c1c(O)c3c(c(O)c1C2=O)C[C@@](O)(C(=O)CO)C[C@@H]3O[C@H]1C[C@H](N)[C@H](O)[C@H](C)O1` showed a fold change (FC) of 2. In addition, the K with DNA [2] was found to be 605000 M⁻¹.
`COc1cccc2c1C(=O)c1c(O)c3c(c(O)c1C2=O)C[C@@](O)(C(C)=O)C[C@@H]3O[C@H]1C[C@H](N)[C@H](O)[C@H](C)O1`: the K in the experiment on DNA [2] was 230000 M⁻¹.
